Key:
[1] = Serum calcium levels of rats dosed with CsA and vitamin D analogs (atomic absorption spectroscopy); assay type: in vivo, Sprague-Dawley male rats
Protocol: Rats were randomly assigned to groups of 6 each. Each animal received daily injections under 2% isofluorane. […] Vitamin D analogs were dissolved in polyethylene glycol, 0.5% ethanol (PEG). […] All rats were provided with food and water ad-libitum as per standard procedure. Animals were dosed daily for 28 days with the last dose given approximately 24 h prior to harvest (except for 5 animals receiving 1,25(OH)2D3 which were dosed 48 h prior to harvest). Animals were placed under anesthesia, urine and blood (aorta) were collected and kidneys removed; rats were euthanized by pneumothorax puncture. Kidneys were sectioned longitudinally with one half placed into 10% formalin and the other half snap frozen into liquid nitrogen. Blood was allowed to clot for about 1 h followed by spinning and removing of serum. Tissues in formalin were embedded in paraffin and sectioned for further study. Serum, urine and frozen kidney tissues were stored at −80° C.
Serum was analyzed for BUN, creatinine and calcium levels. The BUN and creatinine measurements were performed using IDEXX cartridges measured on a VETTEST Chemistry Analyzer.

[2] = tested on: CsA-induced nephrotoxicity; experiment: CsA-induced nephrotoxicity in rats, 28 days: weight, serum BUN and creatinine, urinary protein/creatinine ratio, H&E and picrosirius red histology; assay type: in vivo, Sprague-Dawley male rats; conditions: for Dose sufficient to prevent nephrotoxicity and/or fibrosis without dramatically increasing serum calcium levels: Sprague-Dawley rats; for Picrosirius staining (collagens): kidney sections, birefringence quantified; for Picrosirius staining (collagens) / Serum creatinine / BUN / Urinary protein/creatinine ratio: rats; for Picrosirius staining (collagens) / weight / Serum creatinine / BUN / Urinary protein/creatinine ratio: CsA 20 mg/kg/day, analog 5 ng/kg, daily 28 days; for weight: rats at harvest; for BUN: serum; for Urinary protein/creatinine ratio: spot urine at harvest
Protocol: Rats were randomly assigned to groups of 6 each. Each animal received daily injections under 2% isofluorane. […] Vitamin D analogs were dissolved in polyethylene glycol, 0.5% ethanol (PEG). […] All rats were provided with food and water ad-libitum as per standard procedure. Animals were dosed daily for 28 days with the last dose given approximately 24 h prior to harvest (except for 5 animals receiving 1,25(OH)2D3 which were dosed 48 h prior to harvest). Animals were placed under anesthesia, urine and blood (aorta) were collected and kidneys removed; rats were euthanized by pneumothorax puncture. Kidneys were sectioned longitudinally with one half placed into 10% formalin and the other half snap frozen into liquid nitrogen. Blood was allowed to clot for about 1 h followed by spinning and removing of serum. Tissues in formalin were embedded in paraffin and sectioned for further study. Serum, urine and frozen kidney tissues were stored at -80° C. […] Serum was analyzed for BUN, creatinine and calcium levels. The BUN and creatinine measurements were performed using IDEXX cartridges measured on a […] Chemistry Analyzer. […] Urine testing to determine protein/creatinine ratio was performed using IDEXX cartridges; protein levels were also measured using BCA protein determination. Kidneys fixed in formalin were embedded in paraffin, sectioned and stained with Hematoxilin/eosin and with pricrosirius red, which stains mostly collagens I and III. Stained sections were imaged on an upright brightfield Nikon microscope with polarizer capabilities to assess the birefringence of the picrosirius-stained collagen fibers. Quantization of staining was carried out using Image J from 5 images obtained at random within the central cortical area and excluding blood vessels. For H&E, the eosin staining (pink) prevalent in native tissue was quantified Data was analyzed using Graphpad Prism software with the standard student t-test or One-way Anova operations.

[3] = tested on: unilateral ureteral obstruction (UUO) model; experiment: Unilateral ureteral obstruction (UUO) model, picrosirius staining of collagen in kidney sections; assay type: in vivo, Male Sprague-Dawley rats
Description: The unilateral ureteral obstruction (UUO) model is a surgical model representing a rodent equivalent of acute kidney injury. Obstruction results in marked dilatation of the ureter together with reduced renal blood flow and glomerular filtration.
Male Sprague-Dawley rats weighing approximately 200-350 g were acclimated and fed ad libitum a standard diet (Teklad 8604 or 2018, Harlan, Madison Wis.). Briefly, under 2% isoflurane anesthesia, the left kidney and ureter were exposed through a midline or a flank incision. The ureter was ligated using 5-0 or 6-0 braided silk suture material. The ligated ureter and kidney were returned to the abdominal cavity and the incision was closed in two layers with interrupted sutures and VETBOND tissue adhesive or staples. The right or contralateral kidney was used as a control. Sham operated animals were treated as the UUO animals except their ureter was not ligated (not shown).
Animals were given buprenorphine (0.05 mg/kg) prior to returning them to their cages where they were kept on standard water and chow until sacrifice at the designated times. Animals were euthanized under CO2, following a midline incision blood was collected via cardiac puncture and the kidneys were removed. The midsection of each kidney was placed in 10% formalin for paraffin embedding and histological staining. […]

Compound | Dose sufficient to prevent nephrotoxicity and/or fibrosis without dramatically increasing serum calcium levels [2] [ng/kg per day] | Decrease of BUN compared to the CsA-treated group ([2]; analog at 5 ng/kg) | Mean UPC lower than the mean UPC for the CsA group ([2]; analog at 5 ng/kg) | Picrosirius staining (collagens) [2] | weight [2] [g] | Serum creatinine [2] [mg/dL] | BUN [2] [mg/dL] | Urinary protein/creatinine ratio [2] | other results
2α-methyl-19-nor-(20S)-1α,25-dihydroxyvitamin D3 [2AMD] | 5 | about 30% | about 74% | 1.8 | 333.8 | 0.36 | 28 | 0.2 | Relationship of serum calcium levels with dose ([1]; rat, in vivo): linear relationship with dose; Collagen content ([2]; 2.5 ng/kg): reduction in collagen content; Decrease of BUN compared to the CsA-treated group ([2]; 2AMD at 10 ng/kg): about 30%; Serum creatinine, normal (below 0.6 mg/dL) or not ([2]; 2AMD at 20 ng/kg): normal in most of the treatment groups except for 2AMD at 20 ng/kg; Eosinophilic tissue (eosin in H&E-stained kidney) compared to the CsA treated group ([2]; CsA + 2AMD 2.5 ng/kg): promoted an increase in eosinophilic tissue; Eosinophilic tissue (eosin in H&E-stained kidney) compared to the CsA treated group ([2]; CsA + 2AMD 5 ng/kg): promoted an increase in eosinophilic tissue; Decrease of the CsA-promoted increase in collagen birefringence (picrosirius red) ([2]; CsA + 2AMD 5 ng/kg, 28 days): about 30%; Drop in weight from the rats' original weights ([2]; CsA + 2AMD 5 ng/kg, day of harvest): 5 g; Fibrosis ([2]; all doses of 2AMD (2.5, 5, 10, 20 ng/kg)): effective at reducing fibrosis; Dose optimal in nephroprotection ([2]; various doses of 2AMD tested): 5 ng/kg rat body weight; Decrease in collagen content (picrosirius staining) ([3]; 2AMD 5 ng/kg oral daily for 14 days starting on the day of UUO): 3 fold; Decrease in collagen content (picrosirius staining) ([3]; 2AMD 5 ng/kg oral daily, from 7 days prior to UUO to 7 days after UUO (-7+7)): 3 fold
C=C1[C@H](O)CC(=C/C=C2\CCCC3(C)C2CCC3[C@@H](C)CCCC(C)(C)O)C[C@H]1O (stereo partly drawn) [2MD, 2-methylene-19-nor-(20S)-1α,25-dihydroxyvitamin D3] | 5 | about 30% | about 74% | 1.7 | 317.3 | 0.33 | 27 | 0.4 | 
C=C1/C(=C\C=C2/CCC[C@]3(C)[C@@H]([C@H](C)CCCC(C)(C)O)CC[C@@H]23)C[C@@H](O)C[C@@H]1O [1,25(OH)2 D3, 1,25(OH)2D3] |  |  |  |  |  |  |  |  | Serum calcium level increase with respect to rats with vehicles or CsA+PEG ([1]; CsA + 1,25(OH)2D3 100 ng/kg, 28 days): about 25%
cyclosporine [CsA + PEG] |  |  |  |  |  |  |  |  | Serum Ca ([1]; rats, CsA 20 mg/kg/day, analog 5 ng/kg, daily injection 28 days, blood about 24 h after last dose): 8.7 mg/dL

Source: patent US20200061084A1, “USE OF 2AMD AND 2MD TO TREAT FIBROSIS” (WISCONSIN ALUMNI RESEARCH FOUNDATION, priority 2016, published 2020)
